This is an account of results in the Kinase Knowledgebase extract (Sharma et al. 2016).

In general, IC50 refers to the concentration at which inhibition is half-maximal. Read a low IC50 as greater potency in that assay.

The target of the test is CDK2 (UniProt P24941). The experiment in a line: Enzyme Assay.
Take `CC(C)n1c(=O)ccc2cnc(Nc3ccc(N4CCNCC4)cc3)nc21`: the IC50 worked out at 84 nM. `CC(C)COc1cc2cnc(Nc3ccc(N4CCNCC4)cc3)nc2n(C2CCCC2)c1=O` came in with an IC50 of 3150 nM. To `CCOCCOc1cc2cnc(Nc3ccc(N4CCNCC4)cc3)nc2n(C2CCCC2)c1=O` belongs greater than 5000 nM; to `CCOC(=O)c1cc2cnc(Nc3ccc(N4CCNCC4)cc3)nc2n(C2CCCC2)c1=O`, 5950 nM; to `O=c1c(Cc2ccccc2)cc2cnc(Nc3ccc(N4CCNCC4)cc3)nc2n1C1CCCC1`, greater than 5000 nM. Then `CCc1cc2cnc(Nc3ccc(N4CCC(O)CC4)cc3)nc2n(C2CCCC2)c1=O`, with 179 nM; and `O=c1ccc2cnc(Nc3ccc(N4CCNCC4)cc3)nc2n1C1CCCC1`, with 24 nM; and `O=c1c(F)cc2cnc(Nc3ccc(N4CCNCC4)cc3)nc2n1C1CCCC1`, with 139 nM.

In the case of `CCc1cc2cnc(Nc3ccc(N4CCNCC4)cc3)nc2n(C2CCCC2)c1=O`, the IC50 stood at 142 nM.

In the case of `Cc1cc2cnc(Nc3ccc(N4CCNCC4)cc3)nc2n(C2CCCC2)c1=O`, the IC50 was found to be 59 nM. For `Nc1cc2cnc(Nc3ccc(N4CCNCC4)cc3)nc2n(C2CCCC2)c1=O`, the IC50 is 95 nM. Then `Cc1c(Br)c(=O)n(C2CCCC2)c2nc(Nc3ccc(N4CCNC(C)(C)C4)cc3)ncc12`, with 1330 nM; and `CC(=O)c1c(C)c2cnc(Nc3ccc(N4CCNCC4)cc3)nc2n(C2CCCC2)c1=O`, with 233 nM; and `CCOCCc1cc2cnc(Nc3ccc(N4CCNCC4)cc3)nc2n(C2CCCC2)c1=O`, with 205 nM.

`Cc1c(Br)c(=O)n(C2CCCC2)c2nc(Nc3ccc(N4CC(C)NC(C)C4)cc3)ncc12` (stereo not drawn) had an IC50 of 1860 nM. To `O=c1c(Br)cc2cnc(Nc3ccccc3)nc2n1C1CCCC1` belongs 80 nM; to `O=c1ccc2cnc(Nc3ccc(N4CCNCC4)cc3)nc2n1C1CCCCC1`, 119 nM; to `CC(=O)c1cc2cnc(Nc3ccc(N4CCNCC4)cc3)nc2n(C2CCCC2)c1=O`, 556 nM.
